Measured values taken from patent publication US8735439B2, “Chlorin e6-folic acid conjugate, preparation method thereof, and a pharmaceutical composition for the treatment of cancer comprising the same” (Diatech Korea Co., Ltd., priority 2009, dated 2014).

How the values were obtained:
[1] = in benzol, standard to estimate γ; cited from earlier work
Hela cells [2] = assay: Accumulation in Hela cells; format: cell-based; settings: for concentration in Hela cells: 2×10^−5 M/l, 37° C.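 For concentration in Hela cells: measured as suspension fluorescence intensity at excitation 405 nm and emission 665 nm.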
Description: The cellular accumulation and the targeted delivery of the photoactive compounds were investigated using Hela cells, which is one of the numerous tumor cell types that overexpress folate receptors.
Cells were cultivated for 3 days in medium 199, and transferred to Hank's solution/medium 199 (9/1). After 3 hours, the cell were collected by trypsin treatment from the substrate and placed in Hank's solution (10^5 ? /ml). To cell suspensions, chlorin e6 conjugates were added at a concentration of 2×10^−5 M/l, and incubated at 37° C. After 1, 5, 10, 15, and 24 hours, the samples were centrifuged, the pellet was washed with the cooled Hank's solution, and transferred to Hank's solution at a concentration being equal to that in the initial suspension.

HeLa cell culture = assay: Phototoxicity (photodynamic activity), 3.5 h incubation, 3.3 joule/cm^2; format: cell-based; set-up: number of HELA cells relative to the control: unit not given here; settings: 3.5 hours incubation, photoexposure 3.3 joule/cm^2
Description: To examine the photodynamic effects of a photosensitizer on a HeLa cell culture, the photosensitizer solution was added to the nutrient media at a final concentration of 0.1, 0.5, 1.0, 5.0 or 10 mcg/ml on day 3 after transplanting the cell culture into flasks. The flasks were wrapped with a light protecting cover, and incubated at 37° C. for 3.5 hours. Then, the cells were washed with Hank's solution, and exposed on ice by a laser medical device “LD 680-2000” (wavelength: 670-690 nm) at a dose of 3.3 joule/cm^2. After 20-24 hours, the available cell monolayer was dispersed using a 0.02%-Versene solution, and the number of tumor cells was calculated in Goriaev's chamber. For each point, 3 flasks were used.

HeLa tumor cells = assay: Cytotoxicity (antiproliferative assay) in the absence of light exposure; format: cell-based; settings: for number of HeLa cells: no light, 24 hours
Description: Cytotoxicity was analyzed, considering the intensity of proliferative processes in cells, photosensitizer concentration, and dose of optical power. For each point, 3 flasks with cell monolayer were used.
The monolayer culture of HeLa tumor cells was chosen and used as the cell.
The culture of HeLa tumor cells was grown in nutrient medium 199 or in nutrient medium containing hemohydrolyzate supplemented with 10% fetal bovine serum and […] of kanamycin. […]
Flasks with light-protective cover (dark cytotoxicity) were incubated at 37.5° C. for 1 hour. The cells were washed with Hank's solution 4 times. 2.0 ml of fresh nutrient medium were added, and the cells were irradiated at the temperature of melting ice for 5, 10, 15 or 20 mins by the light flux of a “METALAZ” laser medical device (wavelength: 627.8 nm, 578.2 or 510.6 nm) or “LD 680-2000” (wavelength: 670-690 nm), depending on the wavelength of maximum spectral absorption of the studied photosensitizer, at a dose of 40 J/cm^2. After 20-24 hours, the number of tumor cell was counted in Goriaev's chamber.

Hela cells [3] = assay: Phototoxicity, 24 h incubation, 1.5-15 joule/cm^2; format: cell-based; settings: 670-690 nm
Description: In other experiment, the cells were incubated with photosensitizers at 37° C. for 24 hours, and irradiated by exposed on ice by a laser medical device “LD 680-2000” (wavelength of 670-690 nm) in a dose of 1.5-15 joule/cm^2.

Hela cells [4] = assay: Competition assay with exogenous folic acid, uptake in Hela cells; format: cell-based; settings: 4 μM/l folic acid, 24 hours
Excerpt: Then, the sample was centrifuged, the supernatant was taken, and the pellet was rewashed with cooled Hank's solution. The obtained pellet was again transferred into Hank's solution.

[5] = test system: transporter of restored vectors (TRV); settings: cited from earlier work; for Km: read-out: KM (affinity of the carrier TRV)

SMILES: CCC1=C(CC)c2cc3[n-]c(cc4nc(cc5[n-]c(cc1n2)c(CC)c5CC)C(CC)=C4CC)c(CC)c3CC.[Pd+2] [Pd(II)-octa ethyl porphyrin]
- γ of the standard [1]: one

SMILES: C=Cc1c(C)c2cc3nc(c(CC(=O)O)c4[nH]c(cc5nc(cc1[nH]2)C(C)=C5CC)c(C)c4C(=O)O)C(CCC(=O)O)C3C (stereo not drawn) [chlorin e6, 13-carboxy-17-[2-carboxyethyl]-15-carboxymethyl-17,18-trans-dihydro-3-vinyl-8-ethyl-2,7,12,18-tetramethylporphyrin]
- time in which the majority binds with cells (Hela cells [2]; Hela cells): ≤ 5 h
- concentration in Hela cells (Hela cells [2]; incubation 1 hour): 0.86 relative units/10^4 cl.
- concentration in Hela cells (Hela cells [2]; incubation 5 hours): 1.45 relative units/10^4 cl.
- concentration in Hela cells (Hela cells [2]; incubation 10 hours): 1.72 relative units/10^4 cl.
- concentration in Hela cells (Hela cells [2]; incubation 15 hours): 0.81 relative units/10^4 cl.
- concentration in Hela cells (Hela cells [2]; incubation 24 hours): 0.40 relative units/10^4 cl.
- number of HELA cells relative to the control (HeLa cell culture; 0.1 mcg/ml): 87.1
- number of HELA cells relative to the control (HeLa cell culture; 0.5 mcg/ml): 83.6
- number of HELA cells relative to the control (HeLa cell culture; 1.0 mcg/ml): 64.7
- number of HELA cells relative to the control (HeLa cell culture; 5.0 mcg/ml): 19
- number of HELA cells relative to the control (HeLa cell culture; 10.0 mcg/ml): 3.8
- cytotoxicity in the absence of light exposure (HeLa tumor cells; Hela cells, 24 hr incubation): no cytotoxicity
- cell survival rate (HeLa tumor cells; Hela cells, 24 hr incubation, absence of light exposure): about 90%
- number of HeLa cells (HeLa tumor cells; photosensitizer conc. 1 (μm)): 101.3 percentage of the control
- number of HeLa cells (HeLa tumor cells; photosensitizer conc. 2.5 (μm)): 99.1 percentage of the control
- number of HeLa cells (HeLa tumor cells; photosensitizer conc. 5.0 (μm)): 98.4 percentage of the control
- number of HeLa cells (HeLa tumor cells; photosensitizer conc. 10.0 (μm)): 95.5 percentage of the control
- number of HeLa cells (HeLa tumor cells; photosensitizer conc. 20.0 (μm)): 90.0 percentage of the control
- number of HeLa cells (HeLa tumor cells; photosensitizer conc. 30.0 (μm)): 89.7 percentage of the control
- phototoxicity in survival test (Hela cells [3]): little phototoxicity
- effect of free folic acid on uptake in Hela cells (Hela cells [4]): no significant effect

SMILES: Nc1nc(O)c2nc(CNc3ccc(C(=O)N[C@@H](CCC(=O)O)C(=O)O)cc3)cnc2n1 [folic acid, N-[4(2-Amino-4-hydroxypteridin-6-ylmethylamino)benzoyl]-L(+)-glutamic acid]
- affinity of TRV-mediated transport [5]: about 200 μM
- Km ([5]; tumor cells): 100 to 200 µM

SMILES: CN(Cc1cnc2nc(N)nc(N)c2n1)c1ccc(C(=O)N[C@@H](CCC(=O)O)C(=O)O)cc1 [methotrexate]
- maximum rate of TRV transport ([5]; tumor cells): 1-12 nmol/min per cellular protein (g)
- Km ([5]; tumor cells): 4 to 8 µM
